Active and inactive are the calls of the source. No cut-off for these calls is given here.
Key:
[1] = tested on: U-118-MG; experiment: Inhibition of colony formation in human U118MG cells after 7 days; assay type: functional, cell-based
[2] = tested on: U-87 MG; experiment: Antiproliferative activity against human U87 cells assessed as reduction in cell viability after 72 hrs by MTT assay; assay type: functional, cell-based, U-87MG ATCC
[3] = Antiproliferative activity against human SHG44 cells assessed as reduction in cell viability after 72 hrs by MTT assay; assay type: functional, cell-based; conditions: SHG-44, 72 h
[4] = tested on: U-118-MG; experiment: Effect on P65 protein expression in human U118MG cells at 0.2 to 0.5 uM after 48 hrs by Western blot analysis; assay type: functional, cell-based
[5] = tested on: U-87 MG; experiment: Antiinvasive activity against human U87 cells transfected with lentivirus expressing shNC at 2 uM incubated for 48 hrs by crystal violet staining based transwell assay; assay type: functional, cell-based; conditions: U-87MG ATCC
[6] = molecular target: T1, Pyruvate kinase PKM (Homo sapiens, UniProt P14618); experiment: Activation of PKM2 in human U118MG cells assessed as reduction in bcl-xl expression at 1 to 2 uM after 48 hrs by Western blot analysis; assay type: cell-based
Target sequence in this assay (P14618 2-531 limits assumed): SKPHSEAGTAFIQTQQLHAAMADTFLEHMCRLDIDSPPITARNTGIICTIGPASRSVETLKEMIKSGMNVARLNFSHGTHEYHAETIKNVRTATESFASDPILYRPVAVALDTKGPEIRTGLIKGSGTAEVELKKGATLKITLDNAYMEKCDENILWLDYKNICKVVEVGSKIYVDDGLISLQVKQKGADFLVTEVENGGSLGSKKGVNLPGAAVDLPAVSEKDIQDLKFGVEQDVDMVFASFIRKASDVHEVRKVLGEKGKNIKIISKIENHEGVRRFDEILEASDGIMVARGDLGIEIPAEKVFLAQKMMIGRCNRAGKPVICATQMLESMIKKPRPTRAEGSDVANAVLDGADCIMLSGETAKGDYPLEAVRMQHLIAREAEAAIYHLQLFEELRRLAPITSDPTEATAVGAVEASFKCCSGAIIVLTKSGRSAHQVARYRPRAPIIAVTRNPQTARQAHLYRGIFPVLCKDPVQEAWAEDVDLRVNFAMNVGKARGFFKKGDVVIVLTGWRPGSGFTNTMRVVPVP

[7] = tested on: U-87 MG; experiment: Induction of apoptosis in human U87 cells transfected with lentivirus expressing shNC assessed as viable cells after 48 hrs by Annexin-V-FITC/PI-staining based flow cytometric analysis (reference value: 98.5%); assay type: functional, U-87MG ATCC
[8] = molecular target: T1, Pyruvate kinase PKM; experiment: Activation of recombinant human N-terminal 6His-tagged PKM2 expressed in Escherichia coli BL21 cells at 0.2 to 0.5 uM after 50 mins by fluorescence based analysis
Target sequence in this assay (P14618 2-531 limits assumed): as above

[9] = molecular target: T1, Pyruvate kinase PKM; experiment: Activation of PKM2 in human U87 cells assessed as reduction in vimentin expression at 1 to 2 uM after 24 hrs by Western blot analysis; assay type: cell-based; conditions: U-87MG ATCC
Target sequence in this assay (P14618 2-531 limits assumed): as above

[10] = molecular target: T1, Pyruvate kinase PKM; experiment: Activation of recombinant human N-terminal 6His-tagged PKM2 expressed in Escherichia coli BL21 cells after 50 mins by fluorescence based analysis
Target sequence in this assay (P14618 whole entry): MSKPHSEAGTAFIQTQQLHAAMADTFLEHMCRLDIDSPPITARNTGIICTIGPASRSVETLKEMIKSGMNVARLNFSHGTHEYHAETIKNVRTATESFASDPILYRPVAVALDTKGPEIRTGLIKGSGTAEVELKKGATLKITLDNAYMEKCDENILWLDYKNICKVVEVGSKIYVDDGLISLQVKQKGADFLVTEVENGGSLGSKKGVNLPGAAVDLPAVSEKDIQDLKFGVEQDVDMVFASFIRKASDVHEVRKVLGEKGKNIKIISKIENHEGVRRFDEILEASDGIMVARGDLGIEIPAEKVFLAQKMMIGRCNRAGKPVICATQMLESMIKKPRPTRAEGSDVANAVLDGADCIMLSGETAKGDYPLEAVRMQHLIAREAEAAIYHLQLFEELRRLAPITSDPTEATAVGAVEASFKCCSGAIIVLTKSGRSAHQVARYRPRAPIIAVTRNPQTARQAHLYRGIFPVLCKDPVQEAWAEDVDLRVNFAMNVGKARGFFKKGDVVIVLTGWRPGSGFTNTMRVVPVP

[11] = tested on: SUM-159-PT; experiment: Antiproliferative activity against human SUM159 cells assessed as reduction in cell viability after 72 hrs by MTT assay; assay type: functional, cell-based
[12] = tested on: U-118-MG; experiment: Antiproliferative activity against human U118MG cells transfected with lentivirus expressing shNC assessed as reduction in cell viability after 24 hrs by MTT assay; assay type: functional, cell-based
[13] = tested on: U-118-MG; experiment: Antiinvasive activity against human U118MG cells transfected with lentivirus expressing shPKM2 at 2 uM incubated for 48 hrs by crystal violet staining based transwell assay; assay type: functional, cell-based
[14] = tested on: U-251; experiment: Antiproliferative activity against human U251 cells assessed as reduction in cell viability after 72 hrs by MTT assay; assay type: functional, cell-based; conditions: U-251, 72 h
[15] = tested on: U-118-MG; experiment: Induction of apoptosis in human U118MG cells transfected with lentivirus expressing shNC assessed as early apoptotic cells after 48 hrs by Annexin-V-FITC/PI-staining based flow cytometric analysis (reference value: 2.56%); assay type: functional
[16] = tested on: U-87 MG; experiment: Induction of apoptosis in human U87 cells transfected with lentivirus expressing shNC assessed as late apoptotic cells after 48 hrs by Annexin-V-FITC/PI-staining based flow cytometric analysis (reference value: 0.608%); assay type: functional, U-87MG ATCC
[17] = tested on: U-118-MG; experiment: Induction of apoptosis in human U118MG cells transfected with lentivirus expressing shPKM2 assessed as viable cells after 48 hrs by Annexin-V-FITC/PI-staining based flow cytometric analysis (reference value: 97.7%); assay type: functional
[18] = tested on: U-87 MG; experiment: Induction of apoptosis in human U87 cells transfected with lentivirus expressing shPKM2 assessed as viable cells after 48 hrs by Annexin-V-FITC/PI-staining based flow cytometric analysis (reference value: 97.3%); assay type: functional, U-87MG ATCC
[19] = tested on: U-118-MG; experiment: Induction of apoptosis in human U118MG cells transfected with lentivirus expressing shNC assessed as viable cells after 48 hrs by Annexin-V-FITC/PI-staining based flow cytometric analysis (reference value: 96.7%); assay type: functional
[20] = molecular target: T1, Pyruvate kinase PKM; experiment: Activation of PKM2 in human U118MG cells assessed as inhibition of STAT3 protein expression at 1 to 2 uM after 24 hrs by Western blot analysis; assay type: cell-based
Target sequence in this assay (P14618 2-531 limits assumed): as the sequence (P14618 2-531 limits assumed) above

[21] = tested on: U-118-MG; experiment: Induction of apoptosis in human U118MG cells transfected with lentivirus expressing shPKM2 assessed as early apoptotic cells after 48 hrs by Annexin-V-FITC/PI-staining based flow cytometric analysis (reference value: 2%); assay type: functional
[22] = tested on: SF-126; experiment: Antiproliferative activity against human SF126 cells assessed as reduction in cell viability after 72 hrs by MTT assay; assay type: functional, cell-based; conditions: SF-126, 72 h
[23] = tested on: U-87 MG; experiment: Induction of apoptosis in human U87 cells assessed as late apoptotic cells after 48 hrs by Annexin-V-FITC/PI-staining based flow cytometric analysis (reference value: 1.22%); assay type: functional, U-87MG ATCC
[24] = molecular target: Transcription factor p65 (Homo sapiens) (UniProt Q04206); experiment: Effect on NFkappaB p65 nuclear translocation in human U118MG cells at 0.2 to 0.5 after 48 hrs by Western blot analysis; assay type: cell-based
[25] = tested on: U-118-MG; experiment: Induction of apoptosis in human U118MG cells assessed as late apoptotic cells after 48 hrs by Annexin-V-FITC/PI-staining based flow cytometric analysis (reference value: 0.616%); assay type: functional
[26] = tested on: U-87 MG; experiment: Antimigratory activity against human U87 cells transfected with lentivirus expressing shNC at 2 uM incubated for 48 hrs by crystal violet staining based transwell assay; assay type: functional, cell-based; conditions: U-87MG ATCC
[27] = molecular target: T1, Pyruvate kinase PKM; experiment: Activation of PKM2 in human U87 cells assessed as inhibition of STAT3 protein expression at 1 to 2 uM after 24 hrs by Western blot analysis; assay type: cell-based; conditions: U-87MG ATCC
Target sequence in this assay (P14618 2-531 limits assumed): as above

[28] = molecular target: T1, Pyruvate kinase PKM; experiment: Inhibition of PKM2 dimer nuclear translocation in human U118MG cells assessed as reduction in PKM2 accumulation in nucleus at 0.5 to 1 uM after 48 hrs by Western blot analysis; assay type: cell-based
Target sequence in this assay (P14618 2-531 limits assumed): as above

[29] = tested on: U-118-MG; experiment: Induction of apoptosis in human U118MG cells transfected with lentivirus expressing shNC assessed as late apoptotic cells after 48 hrs by Annexin-V-FITC/PI-staining based flow cytometric analysis (reference value: 0.334%); assay type: functional
[30] = tested on: U-87 MG; experiment: Induction of apoptosis in human U87 cells assessed as viable cells after 48 hrs by Annexin-V-FITC/PI-staining based flow cytometric analysis (reference value: 93.8%); assay type: functional, U-87MG ATCC
[31] = tested on: U-87 MG; experiment: Induction of apoptosis in human U87 cells transfected with lentivirus expressing shPKM2 assessed as late apoptotic cells after 48 hrs by Annexin-V-FITC/PI-staining based flow cytometric analysis (reference value: 1.25%); assay type: functional, U-87MG ATCC
[32] = molecular target: T1, Pyruvate kinase PKM; experiment: Induction of tetrameric formation of recombinant human N-terminal 6His-tagged PKM2 expressed in Escherichia coli BL21 cells assessed as increase in particle size at 10 uM after 30 mins by dynamic laser light scattering analysis
[33] = tested on: A549; experiment: Antiproliferative activity against human A549 cells assessed as reduction in cell viability after 72 hrs by MTT assay; assay type: functional, cell-based; conditions: A549, 72 h
[34] = tested on: U-118-MG; experiment: Induction of apoptosis in human U118MG cells transfected with lentivirus expressing shNC assessed as necrotic cells after 48 hrs by Annexin-V-FITC/PI-staining based flow cytometric analysis (reference value: 0.418%); assay type: functional
[35] = tested on: U-118-MG; experiment: Induction of apoptosis in human U118MG cells after 48 hrs by Annexin-V-FITC/PI-staining based flow cytometric analysis; assay type: functional, cell-based
[36] = molecular target: T1, Pyruvate kinase PKM; experiment: Activation of PKM2 in human U118MG cells assessed as reduction in bcl2 expression at 1 to 2 uM after 48 hrs by Western blot analysis; assay type: cell-based
[37] = tested on: U-118-MG; experiment: Induction of apoptosis in human U118MG cells transfected with lentivirus expressing shPKM2 assessed as late apoptotic cells after 48 hrs by Annexin-V-FITC/PI-staining based flow cytometric analysis (reference value: 0.221%); assay type: functional

Transcription factor p65 (Homo sapiens), sequence (Q04206 whole entry): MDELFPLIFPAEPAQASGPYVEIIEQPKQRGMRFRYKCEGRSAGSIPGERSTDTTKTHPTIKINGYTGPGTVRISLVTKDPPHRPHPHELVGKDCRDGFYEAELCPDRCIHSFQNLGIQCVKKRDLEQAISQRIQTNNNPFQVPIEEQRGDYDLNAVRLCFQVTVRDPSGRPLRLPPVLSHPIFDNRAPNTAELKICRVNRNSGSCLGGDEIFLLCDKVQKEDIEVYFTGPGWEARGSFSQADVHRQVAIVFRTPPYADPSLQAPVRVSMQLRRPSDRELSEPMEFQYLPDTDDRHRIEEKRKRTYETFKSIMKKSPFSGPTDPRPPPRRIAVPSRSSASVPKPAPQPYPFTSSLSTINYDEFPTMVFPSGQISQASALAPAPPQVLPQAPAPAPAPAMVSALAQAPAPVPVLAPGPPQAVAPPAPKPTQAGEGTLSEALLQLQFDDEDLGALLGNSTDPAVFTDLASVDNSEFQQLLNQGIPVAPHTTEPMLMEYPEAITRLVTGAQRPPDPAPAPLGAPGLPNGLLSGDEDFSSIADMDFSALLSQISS

C=C1C(=O)O[C@H]2[C@H]1CC/C(C(=O)OCCOCCOC(=O)/C1=C/CC[C@@]3(C)O[C@H]3[C@H]3OC(=O)C(=C)[C@@H]3CC1)=C\CC[C@@]1(C)O[C@@H]21
inhibition [1]: Dose-dependent effect | IC50 [2]: 3.03 µM | IC50 [3]: 5.24 µM | Activity [4]: inactive | Activity [5]: Active | Activity [6]: Active | Activity [7]: 85.1% | Activity [8]: Active | Activity [9]: Active | AC50 [10]: 0.015 µM | IC50 [11]: 2.82 µM | IC50 [12]: 1.04 µM | Activity [13]: inactive | IC50 [14]: 7.14 µM | Activity [15]: 47.1% | Activity [16]: 3.62% | Activity [17]: 92.8% | Activity [18]: 93% | Activity [19]: 34.7% | Activity [20]: Active | Activity [21]: 5.78% | IC50 [22]: 7.49 µM | Activity [23]: 2.82% | Activity [24]: inactive | Activity [25]: 42.1% | Activity [26]: Active | Activity [27]: Active | inhibition [28]: Active | Activity [29]: 16.4% | Activity [30]: 72.5% | Activity [31]: 2.76% | Activity [32]: Active | IC50 [33]: 11.9 µM | Activity [34]: 1.85% | Activity [35]: Dose-dependent effect | Activity [36]: Active | Activity [37]: 1.32%
